Data as given in ChEMBL document CHEMBL1151485, “Glyco-S-nitrosothiols, a novel class of no donor compounds” (Bioorg Med Chem Lett, 1996).
In brackets after ≈: the same amount, converted by molar mass.

What was measured:
[1] = Compound was evaluated for its stability in phosphate buffer in absence of EDTA at pH 7.4; format: physicochemical; details: phosphate buffer without EDTA
[2] = Compound was evaluated for its stability in phosphate buffer in presence of EDTA at pH 7.4; format: physicochemical; details: phosphate buffer with EDTA
[3] = Solubility of compound in 50 mM sodium phosphate buffer at room temperature; format: physicochemical; details: read-out: S
[4] = Half-life in phosphate buffer at pH 7 and 37 degree C; format: ADME

| Compound | half-life [1] [h] | half-life [2] [h] | solubility [3] [mg/mL] | half-life [4] [h] |
| --- | --- | --- | --- | --- |
| CC(=O)NC(C(=O)NC1OC(CO)C(O)C(O)C1O)C(C)(C)SN=O (stereo not drawn) | 30.2 | 28.5 | > 1000 | – |
| CC(=O)NC(C(=O)NC1C(O)OC(CO)C(O)C1O)C(C)(C)SN=O (stereo not drawn) | 27.4 | 27.5 | > 1000 | – |
| CC(=O)N[C@@H](C(=O)O)C(C)(C)SN=O | 10.3 | 15.9 | 2 (≈ 9.08 mM) | 5 |
| COC1OC(CNC(=O)C(NC(C)=O)C(C)(C)SN=O)C(O)C(O)C1O (stereo not drawn) | 28.2 | 30.2 | > 1000 | – |
